Drawing on patent US9045445B2, “Glycine transporter-1 inhibitors, methods of making them, and uses thereof” (Albany Molecular Research, Inc., priority 2010, dated 2015), this text covers IC50 for 23 compounds.

SMILES strings stand for the structures. Structures can show the parent of a compound that is named as a salt.

For this experiment, the target named is T1, glycine transporter-1 (GlyT-1) (Homo sapiens, UniProt P48067).
T1 construct: JAR cells (ATCC#HTB-144), which endogenously express GlyT-1; host or cells: JAR human choriocarcinoma cells
T1 sequence (P48067 1-706): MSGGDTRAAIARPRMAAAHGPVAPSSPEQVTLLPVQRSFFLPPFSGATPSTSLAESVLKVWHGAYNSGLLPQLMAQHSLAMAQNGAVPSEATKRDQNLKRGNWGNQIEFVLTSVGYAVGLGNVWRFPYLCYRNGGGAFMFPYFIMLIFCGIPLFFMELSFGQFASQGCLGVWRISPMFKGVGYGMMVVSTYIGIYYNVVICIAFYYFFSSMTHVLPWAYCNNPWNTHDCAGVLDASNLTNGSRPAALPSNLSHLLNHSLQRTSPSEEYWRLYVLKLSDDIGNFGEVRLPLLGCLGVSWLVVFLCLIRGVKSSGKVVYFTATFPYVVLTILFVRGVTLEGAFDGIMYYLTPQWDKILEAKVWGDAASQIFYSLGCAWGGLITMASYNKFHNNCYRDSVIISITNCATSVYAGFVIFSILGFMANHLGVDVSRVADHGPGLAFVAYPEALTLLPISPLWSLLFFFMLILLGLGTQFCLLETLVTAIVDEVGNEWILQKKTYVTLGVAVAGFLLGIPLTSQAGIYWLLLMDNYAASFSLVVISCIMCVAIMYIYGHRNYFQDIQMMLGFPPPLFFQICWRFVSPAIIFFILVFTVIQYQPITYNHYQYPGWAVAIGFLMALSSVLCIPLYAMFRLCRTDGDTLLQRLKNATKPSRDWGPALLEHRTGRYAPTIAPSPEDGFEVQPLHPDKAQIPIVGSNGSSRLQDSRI
The experiment is described as follows: [14C]glycine uptake assay in JAR cells endogenously expressing GlyT-1 (scintillation proximity). The experiment is classed as cell-based. The note with it: JAR cells, [14C]glycine 5 μM, 3 hour incubation; read-out: GlyT-1 IC50. Here is the method:
The inhibitory activity of compounds of the invention against the glycine transporter-1 (GlyT-1) can be determined by the following scintillation proximity assay. The potency of each compound was assessed in inhibiting the uptake of radiolabeled glycine ([^14C]glycine) using the human choriocarcinoma cell line, JAR cells (ATCC#HTB-144), which endogenously express GlyT-1. In brief, 50,000 JARS cells were plated per well of tissue culture treated 96-well Cytostar-T plate (PerkinElmer) in RPMI media supplemented with 10% heat inactivated FBS and allowed to attach overnight at 37° C. and 5% CO2. Compounds were serially diluted 3-fold in DMSO generating a nine (9) data point response curve for each compound. Two replicates were performed per determination. The compounds were then diluted into Uptake Buffer (10 mM Hepes, 120 mM NaCl, 2 mM KCl, 1 mM CaCl2 and 1 mM MgCl2, 5 mM Alanine, pH 7.4) with a final DMSO concentration of 0.75% (v/v). Following the overnight incubation, the media was replaced with Uptake Buffer in the presence or absence of diluted compound and pre-incubated at room temperature for 10 minutes prior to the addition of [^14C]glycine at a final concentration of 5 μM. Following a 3 hour incubation period at 37° C. and 5% CO2, the plates were sealed and placed at room temperature in the dark for 15 minutes prior to quantification of incorporated radioactivity using a MicroBeta Trilux scintillation plate reader (PerkinElmer). Data were fit into a four-parameter model to determine the inhibitor concentration at half-maximal response (IC50). The assay window was established by control wells incubated with [^14C]glycine in the presence or absence of 10 mM non-labeled glycine. A dose response curve for a synthesized reference standard was generated on every plate as a positive control.
In general terms: SPA uses beads or plates that emit light when radiolabelled molecules are held near them.
For `Cc1cccc(F)c1C(=O)NCC1(N2CCN(S(=O)(=O)c3cn(C)cn3)CC2)CCC(F)(F)CC1` [compound 182, N-((4,4-Difluoro-1-(4-(1-methyl-1H-imidazol-4-ylsulfonyl)piperazin-1-yl)cyclohexyl)methyl)-2-fluoro-6-methylbenzamide Hydrochloride], the IC50 came to 6 nM.

Consider `CCS(=O)(=O)N1CCN(C2(CNC(=O)c3c(Cl)cc(Cl)cc3Cl)CCC(F)(F)CC2)CC1` [compound 209, 2,4,6-Trichloro-N-((1-(4-(ethylsulfonyl)piperazin-1-yl)-4,4-difluorocyclohexyl)methyl) benzamide Hydrochloride], for which the IC50 turned out to be 83 nM.

Regarding `O=C(NCC1(N2CCN(S(=O)(=O)N3CCC(F)(F)C3)CC2)CCC(F)(F)CC1)c1ccc(C(F)(F)F)cc1Cl` [compound 272, 2-Chloro-N-((1-(4-(3,3-difluoropyrrolidin-1-ylsulfonyl)piperazin-1-yl)-4,4-difluorocyclohexyl)methyl)-4-(trifluoromethyl) benzamide Hydrochloride], the IC50 worked out at 1100 nM.

Take `CCCS(=O)(=O)N1CCN(C2(CNC(=O)c3ccc(C(C)C)cc3)CCCCC2)CC1` [compound 33, 4-Isopropyl-N-((1-(4-(propylsulfonyl)piperazin-1-yl)cyclohexyl)methyl) benzamide Hydrochloride]: the IC50 turned out to be 488 nM.

For the compound `CCCS(=O)(=O)N1CCN(C2(CNC(=O)c3c(Cl)cccc3C(F)(F)F)CCC(F)(F)CC2)CC1` [compound 157, 2-Chloro-N-((4,4-difluoro-1-(4-(propylsulfonyl)piperazin-1-yl)cyclohexyl)methyl)-6-(trifluoromethyl)benz-amide Hydrochloride], the IC50 came out at 59 nM.

On to `CCCS(=O)(=O)N1CCN(C2(CNC(=O)c3ccccc3C)CCC(F)(F)CC2)CC1` [compound 134, N-((4,4-Difluoro-1-(4-(propylsulfonyl)piperazin-1-yl)cyclohexyl)methyl)-2-methylbenzamide Hydrochloride], for which the IC50 was found to be 70 nM.

Consider `CCCS(=O)(=O)N1CCN(C2(CNC(=O)c3ccc(F)cc3F)CCC(F)(F)CC2)CC1` [compound 140, N-((4,4-Difluoro-1-(4-(propylsulfonyl)piperazin-1-yl)cyclohexyl)methyl)-2,4-difluorobenzamide Hydrochloride], for which the IC50 was 195 nM.

As to `CCCS(=O)(=O)N1CCN(C2(CNC(=O)c3c(F)cccc3Cl)CCC(F)(F)CC2)CC1` [compound 156, 2-Chloro-N-((4,4-difluoro-1-(4-(propylsulfonyl)piperazin-1-yl)cyclohexyl)methyl)-6-fluorobenzamide Hydrochloride], the IC50 turned out to be 43 nM.

On to `CCCS(=O)(=O)N1CCN(C2(CNC(=O)c3ccccc3OC)CCCCC2)CC1` [compound 40, 2-Methoxy-N-((1-(4-(propylsulfonyl)piperazin-1-yl)cyclohexyl)methyl) benzamide Hydrochloride], for which the half-inhibitory concentration (IC50) is 629 nM.

As for `CCCS(=O)(=O)N1CCN(C2(CNC(=O)c3c(F)cccc3F)CCCOCC2)CC1` (centres unmarked) [compound 268, 2,6-Difluoro-N-((4-(4-(propylsulfonyl)piperazin-1-yl)oxepan-4-yl)methyl)benzamide Hydrochloride], the IC50 came out at 238 nM.

On to `Cn1cnc(S(=O)(=O)N2CCN(C3(CNC(=O)c4c(F)cccc4OC(F)(F)F)CCC(F)(F)CC3)CC2)c1` [compound 186, N-((4,4-Difluoro-1-(4-(1-methyl-1H-imidazol-4-ylsulfonyl)piperazin-1-yl)cyclohexyl)methyl)-2-fluoro-6-(trifluoromethoxy) benzamide Hydrochloride], for which the IC50 was 1 nM.

Take `CCCS(=O)(=O)N1CCN(C2(C(C)NC(=O)c3c(F)cccc3F)CCC(F)(F)CC2)CC1` (centres unmarked) [compound 196, N-(1-(4,4-Difluoro-1-(4-(propylsulfonyl)piperazin-1-yl)cyclohexyl)ethyl)-2,6-difluorobenzamide Hydrochloride]: the IC50 amounted to 3780 nM.

As to `CN(C)S(=O)(=O)N1CCN(C2(CNC(=O)c3ccc(C(F)(F)F)cc3Cl)CCC(F)(F)CC2)CC1` [compound 273, 2-Chloro-N-((1-(4-(N,N-dimethylsulfamoyl)piperazin-1-yl)-4,4-difluorocyclohexyl)methyl)-4-(trifluoromethyl)benzamide Hydrochloride], the concentration for half-maximal inhibition (IC50) worked out at 350 nM.

Consider `CCS(=O)(=O)N1CCN(C2(CNC(=O)c3c(C)cc(C)cc3C)CCC(F)(F)CC2)CC1` [compound 217, N-((1-(4-(Ethylsulfonyl)piperazin-1-yl)-4,4-difluorocyclohexyl)methyl)-2,4,6-trimethylbenzamide Hydrochloride], for which the IC50 was 216 nM.

In the case of `Cn1cnc(S(=O)(=O)N2CCN(C3(CNC(=O)c4c(F)cccc4Cl)CCC(F)(F)CC3)CC2)c1` [compound 180, 2-Chloro-N-((4,4-difluoro-1-(4-(1-methyl-1H-imidazol-4-ylsulfonyl)piperazin-1-yl)cyclohexyl)methyl)-6-fluorobenzamide Hydrochloride], the IC50 is 8 nM.

`Cn1cnc(S(=O)(=O)N2CCN(C3(CNC(=O)c4ccccc4OC(F)F)CCC(F)(F)CC3)CC2)c1` [compound 183, N-((4,4-Difluoro-1-(4-(1-methyl-1H-imidazol-4-ylsulfonyl)piperazin-1-yl)cyclohexyl)methyl)-2-(difluoromethoxy) benzamide Hydrochloride]: the IC50 is 5 nM.

Turning to `CCCS(=O)(=O)N1CCN(C2(CNC(=O)c3ccc(C)c(C)c3)CCCCC2)CC1` [compound 35, 3,4-Dimethyl-N-((1-(4-(propylsulfonyl)piperazin-1-yl)cyclohexyl)methyl) benzamide Hydrochloride], the IC50 was found to be 1070 nM.

With `CCCS(=O)(=O)N1CCN(C2(CNC(=O)c3ccc(Cl)cc3OC(F)F)CCC(F)(F)CC2)CC1` [compound 249, 4-Chloro-N-((4,4-difluoro-1-(4-(propylsulfonyl)piperazin-1-yl)cyclohexyl)methyl)-2-(difluoromethoxy) benzamide Hydrochloride], the IC50 was found to be 37 nM.

`Cn1cc(S(=O)(=O)N2CCN(C3(CNC(=O)c4c(Cl)cccc4OC(F)(F)F)CCC(F)(F)CC3)CC2)nn1` [compound 191, 2-Chloro-N-((4,4-difluoro-1-(4-(1-methyl-1H-1,2,3-triazol-4-ylsulfonyl)piperazin-1-yl)cyclohexyl)methyl)-6-(trifluoromethoxy) benzamide Hydrochloride]: the IC50 was 1 nM.

For the compound `CCCS(=O)(=O)N1CCN(C2(CNC(=O)c3ccc(C4CC4)cc3Cl)CCC(F)(F)CC2)CC1` [compound 247, 2-Chloro-4-cyclopropyl-N-((4,4-difluoro-1-(4-(propylsulfonyl)piperazin-1-yl)cyclohexyl)methyl) benzamide Hydrochloride], the IC50 amounted to 37 nM.

As to `Cn1cnc(S(=O)(=O)N2CCN(C3(CNC(=O)c4ccc(Cl)cc4Cl)CCC(F)(F)CC3)CC2)c1` [compound 178, 2,4-Dichloro-N-((4,4-difluoro-1-(4-(1-methyl-1H-imidazol-4-ylsulfonyl)piperazin-1-yl)cyclohexyl)methyl) benzamide Hydrochloride], the IC50 turned out to be 5 nM.

Take `Cc1cc(F)ccc1C(=O)NCC1(N2CCN(S(=O)(=O)c3cn(C)cn3)CC2)CCC(F)(F)CC1` [compound 184, N-((4,4-Difluoro-1-(4-(1-methyl-1H-imidazol-4-ylsulfonyl)piperazin-1-yl)cyclohexyl)methyl)-4-fluoro-2-methylbenzamide Hydrochloride]: the IC50 turned out to be 13 nM.

In the case of `CCCS(=O)(=O)N1CCN(C2(CNC(=O)c3c(F)cccc3F)CCC3(CC3)CC2)CC1` [compound 198, 2,6-Difluoro-N-((6-(4-(propylsulfonyl)piperazin-1-yl)spiro[2.5]octan-6-yl)methyl)benzamide Hydrochloride], the IC50 was 162 nM.

The term IC50 denotes the concentration that gives 50% inhibition.
